{
  "source": "PubChem BioAssay AID1259409",
  "about": "(Chemical Carcinogenesis Research Information System (CCRIS), 2018)",
  "origin": "cited, not measured here",
  "tested_on": "rodent chemically induced tumor inhibition, incidence and multiplicity",
  "assay": "CCRIS tumor inhibitor studies",
  "data": [
    {"smiles": "Oc1cccc(O)c1", "values": [
      {"measurement": "tumour outcome (control, treated, inhibition, significance)", "setting": "Carcinogen: 3,2'-DIMETHYL-4-AMINOBIPHENYL, 13394-86-0, Dose [Inhibitor]: 0, 0.8% IN BASAL DIET BEGINNING POST CARCINOGEN TREATMENT AND CONTINUING FOR 40 WK (STUDY DURATION: 60 WK), Route [Inhibitor]: ORAL, Species: RAT, Strain/Sex: F344/MALE, Target Tissue: Type of Lesion: LARGE INTESTINE: ADENOMA AND ADENOCARCINOMA, Dose [Carcinogen]: 50 MG/KG 1/2 WK FOR 20 WK TO RATS MAINTAINED ON ETHINYL ESTRADIOL CONTAINING DIET (0.75 PPM) FOR 1 WK CYCLED WITH ETHINY, Promoter: ETHINYL ESTRADIOL, 57-63-6", "value": "3/10 (30%), 6/10 (60%), -100%, not significant"},
      {"measurement": "tumour outcome (control, treated, inhibition, significance)", "setting": "Carcinogen: 3,2'-DIMETHYL-4-AMINOBIPHENYL, 13394-86-0, Dose [Inhibitor]: 0, 0.8% IN BASAL DIET BEGINNING POST CARCINOGEN TREATMENT AND CONTINUING FOR 40 WK (STUDY DURATION: 60 WK), Route [Inhibitor]: ORAL, Species: RAT, Strain/Sex: F344/MALE, Target Tissue: Type of Lesion: PANCREAS: ACINAR CELL NODULE, Dose [Carcinogen]: 50 MG/KG 1/2 WK FOR 20 WK TO RATS MAINTAINED ON ETHINYL ESTRADIOL CONTAINING DIET (0.75 PPM) FOR 1 WK CYCLED WITH ETHINY, Promoter: ETHINYL ESTRADIOL, 57-63-6", "value": "4/10 (40%), 3/10 (30%), 25%, not significant"},
      {"measurement": "tumour outcome (control, treated, inhibition, significance)", "setting": "Carcinogen: 3,2'-DIMETHYL-4-AMINOBIPHENYL, 13394-86-0, Dose [Inhibitor]: 0, 0.8% IN BASAL DIET BEGINNING POST CARCINOGEN TREATMENT AND CONTINUING FOR 40 WK (STUDY DURATION: 60 WK), Route [Inhibitor]: ORAL, Species: RAT, Strain/Sex: F344/MALE, Target Tissue: Type of Lesion: PREPUTIAL GLAND: ADENOMA AND CARCINOMA, Dose [Carcinogen]: 50 MG/KG 1/2 WK FOR 20 WK TO RATS MAINTAINED ON ETHINYL ESTRADIOL CONTAINING DIET (0.75 PPM) FOR 1 WK CYCLED WITH ETHINY, Promoter: ETHINYL ESTRADIOL, 57-63-6", "value": "5/10 (50%), 3/10 (30%), 40%, not significant"},
      {"measurement": "tumour outcome (control, treated, inhibition, significance)", "setting": "Carcinogen: 3,2'-DIMETHYL-4-AMINOBIPHENYL, 13394-86-0, Dose [Inhibitor]: 0, 0.8% IN BASAL DIET BEGINNING POST CARCINOGEN TREATMENT AND CONTINUING FOR 40 WK (STUDY DURATION: 60 WK), Route [Inhibitor]: ORAL, Species: RAT, Strain/Sex: F344/MALE, Target Tissue: Type of Lesion: PROSTATE: CARCINOMA, Dose [Carcinogen]: 50 MG/KG 1/2 WK FOR 20 WK TO RATS MAINTAINED ON ETHINYL ESTRADIOL CONTAINING DIET (0.75 PPM) FOR 1 WK CYCLED WITH ETHINY, Promoter: ETHINYL ESTRADIOL, 57-63-6", "value": "5/10 (50%), 3/10 (30%), 40%, not significant"},
      {"measurement": "tumour outcome (control, treated, inhibition, significance)", "setting": "Carcinogen: 3,2'-DIMETHYL-4-AMINOBIPHENYL, 13394-86-0, Dose [Inhibitor]: 0, 0.8% IN BASAL DIET BEGINNING POST CARCINOGEN TREATMENT AND CONTINUING FOR 40 WK (STUDY DURATION: 60 WK), Route [Inhibitor]: ORAL, Species: RAT, Strain/Sex: F344/MALE, Target Tissue: Type of Lesion: SMALL INTESTINE: ADENOMA AND ADENOCARCINOMA, Dose [Carcinogen]: 50 MG/KG 1/2 WK FOR 20 WK TO RATS MAINTAINED ON ETHINYL ESTRADIOL CONTAINING DIET (0.75 PPM) FOR 1 WK CYCLED WITH ETHINY, Promoter: ETHINYL ESTRADIOL, 57-63-6", "value": "2/10 (20%), 2/10 (20%), 0%, not significant"},
      {"measurement": "tumour outcome (control, treated, inhibition, significance)", "setting": "Carcinogen: 3,2'-DIMETHYL-4-AMINOBIPHENYL, 13394-86-0, Dose [Inhibitor]: 0, 0.8% IN BASAL DIET BEGINNING POST CARCINOGEN TREATMENT AND CONTINUING FOR 40 WK (STUDY DURATION: 60 WK), Route [Inhibitor]: ORAL, Species: RAT, Strain/Sex: F344/MALE, Target Tissue: Type of Lesion: SUBCUTIS: TUMOR, Dose [Carcinogen]: 50 MG/KG 1/2 WK FOR 20 WK TO RATS MAINTAINED ON ETHINYL ESTRADIOL CONTAINING DIET (0.75 PPM) FOR 1 WK CYCLED WITH ETHINY, Promoter: ETHINYL ESTRADIOL, 57-63-6", "value": "1/10 (10%), 1/10 (10%), 0%, not significant"},
      {"measurement": "tumour outcome (control, treated, inhibition, significance)", "setting": "Carcinogen: 3,2'-DIMETHYL-4-AMINOBIPHENYL, 13394-86-0, Dose [Inhibitor]: 0, 0.8% IN BASAL DIET BEGINNING POST CARCINOGEN TREATMENT AND CONTINUING FOR 40 WK (STUDY DURATION: 60 WK), Route [Inhibitor]: ORAL, Species: RAT, Strain/Sex: F344/MALE, Target Tissue: Type of Lesion: ZYMBAL GLAND: ADENOMA OR CARCINOMA, Dose [Carcinogen]: 50 MG/KG 1/2 WK FOR 20 WK TO RATS MAINTAINED ON ETHINYL ESTRADIOL CONTAINING DIET (0.75 PPM) FOR 1 WK CYCLED WITH ETHINY, Promoter: ETHINYL ESTRADIOL, 57-63-6", "value": "2/10 (20%), 2/10 (20%), 0%, not significant"},
      {"measurement": "tumour outcome (control, treated, inhibition, significance)", "setting": "Carcinogen: BENZO[A]PYRENE, 50-32-8, Dose [Inhibitor]: 10 MG IN 0.1 ML ACETONE 3/WK ADMINISTERED SIMULTANEOUSLY WITH CARCINOGEN FOR DU RATION OF STUDY (STUDY DURATION: 368 D), Route [Inhibitor]: DERMAL, Species: MOUSE, Strain/Sex: ICR/FEMALE, Target Tissue: Type of Lesion: SKIN: PAPILLOMA, Dose [Carcinogen]: 5 UG IN 0.1 ML ACETONE THAT ALSO CONTAINED AGENT 3/WK FOR DURATION OF STUDY, Promoter: NONE USED", "value": "14/50 (28%), 5/50 (10%), 64%, not calculated"},
      {"measurement": "tumour outcome (control, treated, inhibition, significance)", "setting": "Carcinogen: BENZO[A]PYRENE, 50-32-8, Dose [Inhibitor]: 10 MG IN 0.1 ML ACETONE 3/WK ADMINISTERED SIMULTANEOUSLY WITH CARCINOGEN FOR DU RATION OF STUDY (STUDY DURATION: 368 D), Route [Inhibitor]: DERMAL, Species: MOUSE, Strain/Sex: ICR/FEMALE, Target Tissue: Type of Lesion: SKIN: SQUAMOUS CARCINOMA, Dose [Carcinogen]: 5 UG IN 0.1 ML ACETONE THAT ALSO CONTAINED AGENT 3/WK FOR DURATION OF STUDY, Promoter: NONE USED", "value": "10/50 (20%), 2/50 (4%), 80%, not calculated"},
      {"measurement": "tumour outcome (control, treated, inhibition, significance)", "setting": "Carcinogen: N-BIS(2-HYDROXYPROPYL)NITROSAMINE, 53609-64-6, Dose [Inhibitor]: 0, 0.8% IN DIET FOR 30 WK BEGINNING POST CARCINOGEN (STUDY DURATION: 32 WK), Route [Inhibitor]: ORAL, Species: RAT, Strain/Sex: F344/MALE, Target Tissue: Type of Lesion: LUNG: CARCINOMA, Dose [Carcinogen]: 0.1% IN DRINKING WATER FOR 2 WK, Promoter: NONE USED", "value": "45%, 40%, 11%, not calculated"},
      {"measurement": "tumour outcome (control, treated, inhibition, significance)", "setting": "Carcinogen: N-BIS(2-HYDROXYPROPYL)NITROSAMINE, 53609-64-6, Dose [Inhibitor]: 0, 0.8% IN DIET FOR 30 WK BEGINNING POST CARCINOGEN TREATMENT (STUDY DURATION: 32 WK), Route [Inhibitor]: ORAL, Species: RAT, Strain/Sex: F344/MALE, Target Tissue: Type of Lesion: BLADDER: ADENOMA, Dose [Carcinogen]: 0.1% IN DRINKING WATER FOR 2 WK, Promoter: NONE USED", "value": "5%, 10%, -100%, not calculated"},
      {"measurement": "tumour outcome (control, treated, inhibition, significance)", "setting": "Carcinogen: N-BIS(2-HYDROXYPROPYL)NITROSAMINE, 53609-64-6, Dose [Inhibitor]: 0, 0.8% IN DIET FOR 30 WK BEGINNING POST CARCINOGEN TREATMENT (STUDY DURATION: 32 WK), Route [Inhibitor]: ORAL, Species: RAT, Strain/Sex: F344/MALE, Target Tissue: Type of Lesion: KIDNEY: TUMOR, Dose [Carcinogen]: 0.1% IN DRINKING WATER FOR 2 WK, Promoter: NONE USED", "value": "10%, 35%, -250%, not calculated"}
    ]}
  ]
}
